Each structure is given as a SMILES string.

T1 sequence (Q9NZQ7 19-238 limits assumed): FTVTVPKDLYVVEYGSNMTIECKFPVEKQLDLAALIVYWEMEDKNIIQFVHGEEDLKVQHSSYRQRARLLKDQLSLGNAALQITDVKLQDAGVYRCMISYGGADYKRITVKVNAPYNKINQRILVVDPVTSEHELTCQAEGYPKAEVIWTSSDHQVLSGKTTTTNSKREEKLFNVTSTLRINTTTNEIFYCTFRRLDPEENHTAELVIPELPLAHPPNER

This assay has as its target T1, PD-1/PD-L1 (Homo sapiens, UniProt Q9NZQ7).
T1 construct: tag1 or tag2 (identity not disclosed); purchased CisBio 64CUS000C-1
Nature of the assay: Homogeneous Time-Resolved Fluorescence (HTRF) binding test. As to conditions: CisBio kit #64CUS000C-1, read-out: IC50 values of compounds binding to PD-1/PD-L1. As for the experimental part: The binding ability of the compounds of the present disclosure to PD-1/PD-L1 was detected using Homogeneous Time-Resolved Fluorescence (HTRF) binding test.
The purchased kit (CisBio, #64CUS000C-1) contained the reagents needed for experiments, such as PD-1, PD-L1, anti-tag1-Eu, Anti-tag2-XL665, Dilute Buffer and Detection Buffer.
1. The compound was prepared with 100% DMSO to 10 concentrations with a concentration gradient of 3 times.
2. A solution of the compound in DMSO was added into Dilute Buffer, mixed uniformly, and then transferred into 96-well plate.
3. PD-L1 was diluted with Dilute Buffer, and then added into the above 96-well plate.
4. PD-1 was diluted with Dilute Buffer, and then added into the above 96-well plate and incubated at room temperature for 30 minutes.
5. A part of anti-tag1-Eu and a part of Anti-tag2-XL665 were added into Detection Buffer, mixed uniformly and then transferred into the above 96-well plate.
6. The mixed solution in this 96-well plate was incubated at room temperature for 1 hour to 24 hours.
7. HTRF values were read with Envision.
(In general: In TR-FRET formats the signal depends on donor and acceptor labels being close together.)
Regarding `Cc1c(/C=C/c2cc(CNCCO)ccc2C(F)(F)F)cccc1-c1cccc(/C=C/c2cc(CNCCO)ccc2C(F)(F)F)c1C` [Compound 1, 2-[({3-[(E)-2-(3-{3-[(E)-2-(5-{[(2-hydroxyethyl)amino]methyl}-2-(trifluoromethyl)phenyl)ethenyl]-2-methylphenyl}-2-methylphenyl)ethenyl]-4-(trifluoromethyl)phenyl}methyl)amino]-1-ethanol], the IC50 worked out at 6.1 nM. Next, `Cc1c(/C=C/c2cc(CNCCO)ccc2C(F)(F)F)cccc1-c1cccc(/C=C/c2cc(CN[C@@](C)(CO)C(=O)O)ccc2C(F)(F)F)c1C` [Compound 2, (2S)-3-hydroxy-2-[({3-[(E)-2-(3-{3-[(E)-2-(5-{[(2-hydroxyethyl)amino]methyl}-2-(trifluoromethyl)phenyl)ethenyl]-2-methylphenyl}-2-methylphenyl)ethenyl]-4-(trifluoromethyl)phenyl}methyl)amino]-2-methylpropanoic Acid]: 4.4 nM. Next, `Cc1c(/C=C/c2cc(CN[C@@](C)(CO)C(=O)O)ccc2C(F)(F)F)cccc1-c1cccc(/C=C/c2cc(CN[C@@](C)(CO)C(=O)O)ccc2C(F)(F)F)c1C` [Compound 3, (2S)-2-[({3-[(E)-2-(3-{3-[(E)-2-[5-({[(1S)-1-carboxyl-2-hydroxy-1-methylethyl]amino}methyl)-2-(trifluoromethyl)phenyl]ethenyl]-2-methylphenyl}-2-methylphenyl)ethenyl]-4-(trifluoromethyl)phenyl}methyl)amino]-3-hydroxy-2-methylpropanoic Acid]: 3.2 nM. On to `COCCNCc1ccc(C(F)(F)F)c(/C=C/c2cccc(-c3cccc(/C=C/c4cc(CNCCO)ccc4C(F)(F)F)c3C)c2Cl)c1` [Compound 4, 2-[({3-[(E)-2-(3-{3-[(E)-2-(5-{[(2-methoxyethyl)amino]methyl}-2-(trifluoromethyl)phenyl)ethenyl]-2-chlorophenyl}-2-methylphenyl)ethenyl]-4-(trifluoromethyl)phenyl}methyl)amino]-1-ethanol], for which the IC50 was 4.3 nM.

On to `COCCNCc1ccc(C(F)(F)F)c(/C=C/c2cccc(-c3cccc(/C=C/c4cc(CN[C@@](C)(CO)C(=O)O)ccc4C(F)(F)F)c3C)c2Cl)c1` [Compound 5, (2S)-3-hydroxy-2-[({3-[(E)-2-(3-{3-[(E)-2-(5-{[(2-methoxyethyl)amino]methyl}-2-(trifluoromethyl)phenyl)ethenyl]-2-chlorophenyl}-2-methylphenyl)ethenyl]-4-(trifluoromethyl)phenyl}methyl)amino]-2-methylpropanoic Acid], for which the IC50 came out at 2.3 nM. Turning to `Cc1c(/C=C/c2cc(CN[C@@](C)(CO)C(=O)O)ccc2C(F)(F)F)cccc1-c1cccc(/C=C/c2cc(CNCCO)ccc2C(F)(F)F)c1Cl` [Compound 6, (2S)-3-hydroxy-2-[({3-[(E)-2-(3-{3-[(E)-2-(5-{[(2-hydroxyethyl)amino]methyl}-2-(trifluoromethyl)phenyl)ethenyl]-2-chlorophenyl}-2-methylphenyl)ethenyl]-4-(trifluoromethyl)phenyl}methyl)amino]-2-methylpropanoic Acid], the IC50 stood at 2.8 nM. As for `Cc1c(/C=C/c2cc(CNCCO)ccc2C(F)(F)F)cccc1-c1cccc(/C=C/c2cc(CNCCO)ccc2C(F)(F)F)c1Cl` [Compound 7, 2-[({3-[(E)-2-(3-{3-[(E)-2-(5-{[(2-hydroxyethyl)amino]methyl}-2-(trifluoromethyl)phenyl)ethenyl]-2-chlorophenyl}-2-methylphenyl)ethenyl]-4-(trifluoromethyl)phenyl}methyl)amino]-1-ethanol], the figure is 2.6 nM; as for `COCCOc1ccc(F)c(/C=C/c2cccc(-c3cccc(/C=C/c4cc(CN[C@@](C)(CO)C(=O)O)ccc4C(F)(F)F)c3C)c2C)c1` [Compound 8, (2S)-3-hydroxy-2-[({3-[(E)-2-[3-(3-(E)-{2-[2-fluoro-5-(2-methoxyethoxy)phenyl]ethenyl}-2-methylphenyl)-2-methylphenyl]ethenyl]-4-(trifluoromethyl)phenyl}methyl)amino]-2-methylpropanoic Acid], 510 nM.

Turning to `Cc1c(/C=C/c2cc(CNCCO)ccc2C(F)(F)F)cccc1-c1cccc(-c2cccc(CNCCO)c2)c1C` [Compound 9, 2-({[(3-(E)-2-{3-[3-(3-{[(2-hydroxyethyl)amino]methyl}phenyl)-2-methylphenyl]-2-methylphenyl}ethenyl)-4-(trifluoromethyl)phenyl]methyl}amino)-1-ethanol], the IC50 stood at 7.5 nM.

Turning to `Cc1c(/C=C/c2cc(CNCCO)ccc2C(F)(F)F)cccc1-c1cccc(-c2cc(CNCCO)ccc2F)c1C` [Compound 10, 2-({[(3-(E)-2-{3-[3-(5-{[(2-hydroxyethyl)amino]methyl}-2-fluoro-phenyl)-2-methylphenyl]-2-methylphenyl}ethenyl)-4-(trifluoromethyl)phenyl]methyl}amino)-1-ethanol], the IC50 came out at 14 nM.

Turning to `Cc1c(/C=C/c2cc(CN[C@@](C)(CO)C(=O)O)ccc2C(F)(F)F)cccc1-c1cccc(-c2cc(CN[C@@](C)(CO)C(=O)O)ccc2F)c1C` [Compound 11, (2S)-2-[({3-[(E)-2-(3-{3-[5-({[(1S)-1-carboxyl-2-hydroxy-1-methylethyl]amino}methyl)-2-fluorophenyl]-2-methylphenyl}-2-methylphenyl)ethenyl]-4-(trifluoromethyl)phenyl}methyl)amino]-3-hydroxy-2-methylpropanoic acid], the IC50 stood at 8.7 nM.

For `Cc1c(/C=C/c2cc(CNCCO)ccc2C(F)(F)F)cccc1-c1cccc(/C=C/c2cc(CNCCO)ccc2C(F)(F)F)c1CF` [Compound 12, 2-[({3-[(E)-2-(3-{3-[(E)-2-(5-{[(2-hydroxyethyl)amino]methyl}-2-(trifluoromethyl)phenyl)ethenyl]-2-(fluoromethyl)phenyl}-2-methylphenyl)ethenyl]-4-(trifluoromethyl)phenyl}methyl)amino]-1-ethanol], the IC50 was 4.7 nM.

The record behind these values is patent US20210387941A1, “Diphenyl-like Compound, Intermediate Thereof, Preparation Method Therefor, Pharmaceutical Composition Thereof And Uses Thereof” (SHANGHAI MAXINOVEL PHARMACEUTICALS CO., LTD., priority 2018, published 2021).
